We go through three compounds from ChEMBL document CHEMBL3596174, “Investigation on the sucrose binding pocket of HIV-1 Integrase by molecular dynamics and synergy experiments” (Bioorg Med Chem Lett, 2015).

Test [1] has as its target Human immunodeficiency virus type 1 integrase (Human immunodeficiency virus 1, UniProt Q7ZJM1). The experiment in a line: Binding affinity to recombinant HIV-1 integrase catalytic core domain expressed in Escherichia coli assessed as inhibition of interaction with […] by HTRF assay.
Test [2] concerns the target Human immunodeficiency virus type 1 integrase (Human immunodeficiency virus 1) (UniProt Q7ZJM1). The experiment in a line: Inhibition of His-tagged HIV-1 integrase-mediated 3' processing and strand transfer reactions using 5'-ACAGGCCTAGCACGCGTCG-Biotin-3' annealed with 5'-CGACGCGTGGTAGGCCTGT-Biotin3'/5'-Cy5-ATGTGGAAAATCTCTAGCAGT-3' annealed with 5'-Cy5-TGAGCTCGAGATTTTCCACAT-3' as donar/acceptor DNA substrate preincubated for 1 hr followed by DNA and LEDGF/p75 addition measured after 90 mins by HTRF assay. For orientation: TR-FRET usually uses a lanthanide donor and a delayed reading to cut background.

Each structure is given as a SMILES string.

Human immunodeficiency virus type 1 integrase, sequence (Q7ZJM1 whole entry, the tested form may be a part): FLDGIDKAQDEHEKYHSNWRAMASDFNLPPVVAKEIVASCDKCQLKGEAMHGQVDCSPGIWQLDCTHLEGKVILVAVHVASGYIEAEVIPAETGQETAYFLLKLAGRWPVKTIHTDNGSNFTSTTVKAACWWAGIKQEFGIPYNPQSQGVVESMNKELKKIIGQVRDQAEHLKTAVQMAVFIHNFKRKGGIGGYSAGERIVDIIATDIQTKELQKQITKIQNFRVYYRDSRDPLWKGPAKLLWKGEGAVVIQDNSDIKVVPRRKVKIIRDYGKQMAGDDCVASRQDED
Human immunodeficiency virus type 1 integrase (Human immunodeficiency virus 1), sequence (Q7ZJM1 as listed by the source): as the sequence (Q7ZJM1 whole entry, the tested form may be a part) above

With `Cc1nc2ccc(Br)cc2c(-c2ccc(Cl)cc2)c1[C@H](OC(C)(C)C)C(=O)O`, in test [1], the IC50 (as a rule, the concentration that inhibits the measured activity by half) was determined as 60 nM. As for `Cc1nc2ccccc2c(-c2cc(F)c3c(c2C)CCCO3)c1[C@H](OC(C)(C)C)C(=O)O`, in test [1], the IC50 was 18 nM. As for `CCC[C@H](C(=O)O)c1c(C)nc2ccc(Cl)cc2c1-c1ccccc1`, in test [2], the inhibition entry was “Dose-dependent effect”.
